Measured values published in BindingDB's records for doi:10.1124/jpet.301.1.322 (Sanofi Synthelabo, 2002).
Substitutions are numbered along the chain they refer to. Where “and” joins values, the source holds several entries; their conditions need not be identical. Equal values may be shown once.

Columns and labels:
[1] = target: T1, Corticotropin-releasing factor receptor 1 (Rattus norvegicus, UniProt P35353)
T1 sequence (P35353 whole entry): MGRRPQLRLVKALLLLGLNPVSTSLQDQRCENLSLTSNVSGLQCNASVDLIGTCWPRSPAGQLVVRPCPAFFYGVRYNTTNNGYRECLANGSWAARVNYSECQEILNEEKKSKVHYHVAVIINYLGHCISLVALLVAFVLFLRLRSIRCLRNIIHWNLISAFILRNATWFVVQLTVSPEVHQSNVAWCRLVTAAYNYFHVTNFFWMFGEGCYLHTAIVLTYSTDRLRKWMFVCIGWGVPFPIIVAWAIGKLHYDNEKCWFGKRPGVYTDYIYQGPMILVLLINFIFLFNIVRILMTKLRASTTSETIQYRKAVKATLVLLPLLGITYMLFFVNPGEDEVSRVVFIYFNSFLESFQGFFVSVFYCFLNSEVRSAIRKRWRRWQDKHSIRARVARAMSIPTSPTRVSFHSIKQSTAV

[2] = target: T2, Corticotropin-releasing factor receptor 1 (Homo sapiens, UniProt P34998)
T2 sequence (P34998 whole entry): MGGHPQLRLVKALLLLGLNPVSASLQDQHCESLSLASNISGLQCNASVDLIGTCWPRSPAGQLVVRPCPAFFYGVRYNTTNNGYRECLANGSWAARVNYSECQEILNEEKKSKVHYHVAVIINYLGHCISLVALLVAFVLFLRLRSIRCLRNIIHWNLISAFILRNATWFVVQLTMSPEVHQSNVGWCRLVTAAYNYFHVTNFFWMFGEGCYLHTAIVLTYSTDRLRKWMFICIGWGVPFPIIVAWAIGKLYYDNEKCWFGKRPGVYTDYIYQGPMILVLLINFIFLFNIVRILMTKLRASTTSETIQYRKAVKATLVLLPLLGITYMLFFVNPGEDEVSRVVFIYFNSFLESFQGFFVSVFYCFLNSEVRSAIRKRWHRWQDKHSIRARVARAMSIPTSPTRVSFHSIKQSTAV

[3] = target: T3, Corticotropin-releasing factor receptor 1 (Mus musculus, UniProt P35347)
T3 sequence (P35347 whole entry): T1 sequence (P35353 whole entry) with R3Q, R29Q, N32S, T36A, V118I, H252Y

Ki [1]: 1.7 nM and 1 nM
Ki [2]: 0.83 nM
Ki [3]: 1.26 nM
Compound: Cc1ccccc1C(=O)Nc1ccc(C(=O)N2CCCC(O)c3cc(Cl)ccc32)c(C)c1 (stereo not drawn)
